Experimental data published in US5510375A, “Coumarin derivatives as protease inhibitors and antiviral agents” (Warner-Lambert Company, priority 1993, dated 1996).
Where two headings read alike, the source gives them in different places.

Columns and labels:
HIV-1 Protease = target: T1, HIV-1 Protease (Human immunodeficiency virus type 1 group M subtype B, UniProt P04585); assay: HIV Protease Inhibition (hydrolysis of undecapeptide Substrate III, HPLC); type: biochemical
T1 construct: purchased Bachem Bioscience Inc
Method: 1.0 mM dithiothreitol (DTT) was prepared fresh daily in 0.1% polyethylene glycol (mw 8000) 80 mM NaOAc, 160 mM NaCl, 1.0 mM EDTA, and brought to pH 4.7 with HCl.
The enzyme is obtained from Bachem Bioscience Inc. The undiluted enzyme is thawed from -80° C. and diluted 50-fold with DTT buffer. The solution is always kept at 0° C. on ice water and used in the experiment within 20 minutes after thawing.
Substrate III from Bachem Bioscience Inc. is the undecapeptide H-His-Lys-Ala-Arg-Val-Leu-p-Nitrophenylalanine-Glu-Ala-Norleucine-Ser-NH2 (>97% purity). A 200 μM stock solution in DTT buffer is prepared and stored on ice. Substrate solution is prepared fresh daily.
10 mM inhibitor (I) in dimethyl sulfoxide (DMSO) is diluted to 200 μM with DTT buffer. From the 200 μM stock solution is made a 10 μM stock solution with 2% DMSO in DTT buffer. The two inhibitor solutions are used to make final (I)=100, 50, 20, 10, 5, 0.5 and 0 μM with 2% DMSO in DTT buffer in each reaction well (total inhibitor volume of 50 μl).
To each reaction well is added 20 μl of substrate (final concentration of 40 μM), 50 μl of inhibitor (at a concentration such that final dilution will produce the test concentration) and 20 μl of DTT buffer. The reaction plate (96 wells) is incubated at 37° C. for at least 5 minutes.
10 μl of the diluted protease is added to the reaction well while the reaction plate is shaking. Once shaken for 10 seconds, the plate is returned to the heating block at 37° C. (Final reaction volume=100 μl)
The reaction is incubated for 5 minutes at 37° C. The reaction is stopped by placing the reaction plate on the shaker and adding 20 μl of 10% trifluoroacetic acid (TFA) and shaking for 10 seconds. The amount of proteolysis is then determined by separation of noncleaved substrate and two cleaved products with reverse-phase HPLC, while measuring absorbance at 220 nm to determine the relative peak areas of the three components. The relative peak areas are used to calculate % conversion to product as a function of inhibitor concentration. The data is plotted as % Control (the ratio of % conversion in the presence and absence of inhibitor×100) versus inhibitor concentration and fit with the equation Y=100/1+(X/IC50)^A, where IC50 is the inhibitor concentration at 50% inhibition and A is the slope of the inhibition curve.

HIV = conditions: R. Nagorny et al., AIDS, 7: 129-130 (1993); cited from earlier work
HIV-1iiib = assay: Anti-HIV-1 activity in H9 cells (acute infection, reverse transcriptase assay); type: cell-based; conditions: Human immunodeficiency virus 1, acute HIV-1iiib infection, multiplicity of infection 0.01, 4 and 7 days post infection, 0.2% DMSO, read-out: Therapeutic Concentration for 50% Protection of Cells
Method: Using the general methods of Pauwels et al., (J. Virol. Methods, 16: 171-185 (1987) and Mann et al. (AIDS Research and Human Retroviruses, 253-255 (1989)) anti-viral assays of acute HIV-1 infection were performed in the H9 cell line. Cultures were batch infected in 1 ml of RPM1 1640 media/10% fetal calf serum containing 10^7 cells and 10^5 infectious doses of HIV-1iiib for an effective multiplicity of infection of 0.01. After 2 hours of viral absorption, cells were washed once and plated in 96-well microtiter plates at a density of 10^4 cells per well. Test compounds were added to produce the desired concentration of drug and 0.2% DMSO in a final volume of 200 μl. Uninfected parallel cultures were maintained for XTT cytotoxicity assay at 7 days post infection. Cultures were tested for viral replication by reverse transcriptase assay at 4 and 7 days post infection.

[1] = pH 4.7, 37° C., 40 μM substrate, 2% DMSO, 5 minutes, read-out: 50% Inhibition Concentration

Row | IC50 (HIV-1 Protease; [1]) [µM] | Structure (SMILES) | IC50 (HIV-1 Protease) [µM] | further results
1 | 1.9 | COc1ccc(OCCCc2c(O)c3ccccc3oc2=O)cc1 [Example 4, 4-Hydroxy-3-3-(4-methoxyphenoxy)propyl!-2H-1-bensopyran-2-one] | – | –
2 | 5 | COc1ccccc1CCCCc1c(O)c2cccc(C)c2oc1=O [Example 23, 4-Hydroxy-3-4-(2-methoxyphenyl)butyl!-8-methyl-2H-1-benzopyran-2-one] | – | –
3 | 0.5 | COc1ccccc1CCCCc1c(O)c2ccc(O)cc2oc1=O [Example 43, 4,7-Dihydroxy-3-4-(2-methoxyphenyl)butyl!-2H-1-benzopyran-2-one] | – | –
4 | 2.8 | O=c1oc2ccccc2c(O)c1CCCCc1ccccc1O [Example 14, 4-Hydroxy-3-4-(2-hydroxyphenyl)butyl!-2H-1-benzopyran-2-one] | – | –
5 | 1.7 | COc1ccccc1CCCCc1c(O)c2ccccc2oc1=O [Example 13, 4-Hydroxy-3-4-(2-methoxyphenyl)butyl!-2H-1-benzopyran-2-one] | – | EC50 (HIV-1iiib): 13 µM

Further lines, the compound ahead of its results:

Row | Structure (SMILES) | IC50 (HIV-1 Protease; [1]) [µM] | IC50 (HIV-1 Protease) [µM] | further results
6 | O=c1oc2ccccc2c(O)c1C(SC1CCCCC1)c1ccccc1 (stereo not drawn) [Example 42, 3-(Cyclohexylthio)phenylmethyl!-4-hydroxy-2H-1-benzopyran-2-one] | – | 0.4 | –
7 | O=c1oc2ccccc2c(O)c1CCCOc1cccc(CO)c1 [Example 10, 4-Hydroxy-3-3-(3-hydroxymethylphenoxy)propyl!-2H-1-benzopyran-2-one] | 1.2 | – | –
8 | O=C(O)c1cccc(OCCCc2c(O)c3ccccc3oc2=O)c1 [Example 9, 3-3-(4-Hydroxy-2-oxo-2H-1-benzopyran-3-yl)propoxy!benzoic acid] | 5 | – | –
9 | N#Cc1cccc(OCCCc2c(O)c3ccccc3oc2=O)c1 [Example 37, 3-3-(3-Cyanophenoxy)propyl!-4-hydroxy-2H-1-benzopyran-2-one] | – | 0.6 | –
10 | COc1ccc2c(O)c(CCCCc3ccccc3OC)c(=O)oc2c1 [Example 22, 4-Hydroxy-7-methoxy-3-4-(2-methoxyphenyl)butyl!-2H-1-benzopyran-2-one] | – | 1.4 | –
11 | CC(=O)CC(c1ccccc1)c1c(O)c2ccccc2oc1=O (stereo not drawn) [Warfarin, 3-(α-acetonylbenzyl)4-hydroxycoumarin] | – | – | inhibiting cell-free and cell-mediated HIV infection (HIV): inhibiting cell-free and cell-mediated HIV infection
12 | O=c1oc2ccccc2c(O)c1CCCOc1cccc(Cl)c1 [Example 7, 3-3-(3-Chlorophenoxy)propyl!-4-hydroxy-2H-1-benzopyran-2-one] | – | 1.3 | –
13 | CCOC(=O)c1cccc(OCCCc2c(O)c3ccccc3oc2=O)c1 [Example 8, Ethyl 3-3-(4-hydroxy-2-oxo-2H-1-benzopyran-3-yl)propoxy!benzoate] | – | – | IC50 (HIV-1 Protease; read-out: 50% Inhibition Concentration): 0.5 µM; EC50 (HIV-1iiib): 58 µM
